One may read the CC50 as the concentration giving 50% cytotoxicity.

In this experiment the test system is cytotoxicity counter-screen, cell viability, 2% serum. Briefly: host cell cytotoxicity, X4 fusion assay cells, dose response, cytotoxicity control for HIV-1 antiviral lead project, CXCR4-tropic fusion assay, 2% serum, set 2 (AID 504574).
Regarding `Cc1c2c(=O)n(-c3nc4ccccc4s3)nc-2cc(O)n1Cc1ccncc1`, the CC50 was 9.26 µM.

On to `Cc1c2c(=O)n(-c3nc4ccccc4s3)nc-2cc(O)n1Cc1cccnc1`, for which the CC50 was 7.86 µM.

For `Cc1c2c(=O)n(-c3nc4ccccc4s3)nc-2cc(O)n1CCc1cccs1`, the CC50 is 16 µM. As to `Cc1c2c(=O)n(-c3nc4ccccc4s3)nc-2cc(O)n1C1CC1`, the CC50 was 3.82 µM. Turning to `Cc1c2c(=O)n(-c3nc4ccccc4s3)nc-2cc(O)n1Cc1ccccc1Cl`, the CC50 is 6.06 µM. Turning to `COc1ccc(CCn2c(O)cc3nn(-c4nc5ccccc5s4)c(=O)c-3c2C)cc1`, the CC50 was 23.4 µM. With `Cc1c2c(=O)n(-c3nc4ccccc4s3)nc-2cc(O)n1Cc1cccs1`, the CC50 is 5.51 µM.

Consider `COc1ccc(Cn2c(O)cc3nn(-c4nc5ccccc5s4)c(=O)c-3c2C)cc1`, for which the CC50 is 5.52 µM. For `Cc1c2c(=O)n(-c3nc4ccccc4s3)nc-2cc(O)n1CCC(C)C`, the CC50 is 18.6 µM. Turning to `Cc1c2c(=O)n(-c3nc4ccccc4s3)nc-2cc(O)n1Cc1ccc(F)cc1`, the CC50 is 4.88 µM.

As for `Cc1c2c(=O)n(-c3nc4ccccc4s3)nc-2cc(O)n1Cc1ccccc1`, the CC50 is 8.94 µM. Next, `COc1ccccc1Cn1c(O)cc2nn(-c3nc4ccccc4s3)c(=O)c-2c1C`: 15.1 µM; `Cc1c2c(=O)n(-c3nc4ccccc4s3)nc-2cc(O)n1CCc1ccc(O)cc1`: 3.34 µM.

The record behind these values is PubChem BioAssay AID504574 (Southern Research Specialized Biocontainment Screening …, 2011).
